# Data published in patent US5968912A, “Methods for immunosuppressing” (Immune Modulation, Inc., priority 1997, dated 1999).
# Where “and” joins values, the source holds several entries; their conditions need not be identical. Equal values may be shown once. Entries after “also recorded” stand apart in the source; their conditions may differ.
# Experiments:
# [1] = test system: IL-2; test: IL-2 production in PHA-stimulated PBMC cultures; assay type: cell-based, human; set-up: % Inhibition of IL-2 production: concentration or dose not given beside the values
# Method: (§1) Production of autocrine growth factors (IL-2, IL-4, IL-10 and Interferon-gamma) in PHA-stimulated human PBMC cultures
# (§2) Culture supernatants were collected at the times indicated and frozen at -20° C. At the end of 96 hr., all supernatants were assayed by enzyme immunoassay for the presence of the cytokines: interleukin-2, -4, -10 and interferon (IFN)-gamma. Results were expressed in pg/mL concentration of cytokine and % inhibition of cytokine production.
# [2] = test system: Protein Kinase-C-Mediated T-cell Proliferation (PBMC); test: PK-C-mediated T-cell proliferation (PMA + A23187); assay type: cell-based, human; conditions: PMA 1.25 ng/mL + A23187 0.25 μM
# Method: Determination of the effect of HE-33 on PK-C-mediated signaling pathway
# PBMC of a healthy volunteer were cultured in 96-well microtiter plates at 2×10^5 cells/well. […] Forskolin is an agent well known to increase intacellular cAMP levels by activating adenylate cyclase. Cultures were incubated for 3 days at 37° C. in a 5% CO2 incubator. Proliferative response was determined by incorporation of ^3 H-thymidine.. The results were expressed in CPM and % inhibition of proliferation (Table 7).
# [3] = test system: NK cell activity (YAC-I cells as target); test: NK cell cytotoxicity assay, cells of pretreated donor mice; assay type: in vivo, mouse (C57BL/6); conditions: spleen, effector/target 100:1
# Method: (§3) Elimination of endogenous and inducible NK cell activity from the cell donor mice (C57BL/6)
# (§4) Six- to ten-week old C57BL/6 mice were treated for 24 hours orally or intravenously with HE-33. Orally-treated mice received 400 mg/kg twice a day (Bid), and intravenously treated mice received a single 100 mg/kg i.v.
# NK Cell cytotoxicity assay: At the end of the 24 hour pre-treatment with HE-33, all treated mice and control, non-treated mice (i.e., mice treated with vehicle, PBS) were sacrificed by cervical dislocation. Spleens and lymph nodes were removed and single-cell suspension of pooled spleen and lymph nodes from mice in each group of donor were prepared in RPMI-1640 supplemented with 10% fetal bovine serum (FBS) and 1% penicillin/streptomycin. Target cells were ^51 Cr-labeled Moloney leukemia virus-induced lymphoma (YAC) tumor cells. Different effector:target cell ratios were cultured in triplicate samples in U-bottomed microtiter plates for 4 hours at 37° C. in a humidified atmosphere containing 5% CO2. The microtiter plates were then centrifuged, and 100-μL aliquots of supernatants were assayed for ^51 Cr release. Results were expressed as percent lysis and percent suppression of lysis. The method of Ojo-Amaize, E. et. al., Scand. Journal of Immunology, 1978, 7: 297-306, was used for the NK assays.
# [4] = test system: GVHD in (B6 x C3H)F1 mice; test: GVHD in (B6 x C3H)F1 recipients of cells from pretreated C57BL/6 donor mice; assay type: in vivo, mouse
# Method: Generation of F1 Recipient Mice: Male mice of inbred strains, C57BL/6 (H-2^b haplotype) were mated with female mice of inbred strains, C3 H/j (H-2^k haplotype). The resulting hybrids (C57BL/6×C3 H/j)F1 were used as recipients of the B6 spleen cells.
# as §3, §4
# Irradiation of Recipient (B6 ×C3 H)F1 Mice: Ten- to twelve- week old (B6 ×C3 H)F1 mice were sublethally irradiated with a Cobalt-60 gamma source at 450 rads in a single dose.
# Induction of GVHD: GVHD was induced in irradiated (B6 ×C3 H)F1 mice by the intravenous injection of 5×10^7 donor B6 (H-2^b) spleen and lymph node cells.
# [5] = test system: Human T-lymphocyte-mediated cytolysis (cytotoxic CD8+ T-cells); test: One-way MLR-generated T-lymphocyte-mediated cytolysis (CTL assay, 51Cr release); assay type: cell-based
# [6] = test system: IL-4; test: IL-4 production in PHA-stimulated PBMC cultures; assay type: cell-based, human; set-up: % Inhibition of IL-4 production: concentration or dose not given beside the values
# Method: as §1, §2
# [7] = test system: anti-CD3-induced T-cell proliferation (PBMC); test: Anti-CD3-induced T-cell proliferation; assay type: cell-based, human; conditions: anti-CD3 1 ng/mL
# Method: Anti-T cell receptor (TCR)/CD3 induced T cell proliferation
# PBMC of a healthy volunteer were cultured in 96-well microtiter plates at 2×10^5 cells/well. […] Cultures were incubated for 3 days at 37° C. in a 5% CO2 incubator. Proliferative response was determined by incorporation of ^3 H-thymidine.
# Anti-CD3 mAb was used at 1 ng/mL concentration.
# [8] = test system: Interferon-gamma; test: Interferon-gamma production in PHA-stimulated PBMC cultures; assay type: cell-based, human; set-up: % Inhibition of IFN-γ production: concentration or dose not given beside the values
# Method: as §1, §2
smiles,measurement,setting,value
"CCCN(CCC)c1ncnc2c1ncn2[C@@H]1O[C@@H]2COP(=O)(O)O[C@H]2[C@H]1O [HE-33, N^6,N^6 -di-n-Propyl-c-AMP]",% Inhibition of IL-2 production,[1]; 24 hours,0%
same,IL-2 production,[1]; 24 hours,418 pg/mL
same,% Inhibition of IL-2 production,[1]; 48 hours,76%
same,IL-2 production,[1]; 48 hours,148 pg/mL
same,% Inhibition of IL-2 production,[1]; 72 hours,70%
same,IL-2 production,[1]; 72 hours,51 pg/mL
same,% Inhibition of IL-2 production,[1]; 96 hours,0%
same,IL-2 production,[1]; 96 hours,48 pg/mL
same,Proliferation,[2]; 100 μM,31 CPM
same,inhibition at 100 µM,"[2]; Homo sapiens, T-cell",97%
same,Percent Lysis (NK cell activity),[3]; 100 mg/kg IV,14%
same,Percent Lysis (NK cell activity),[3]; 400 mg/kg (Bid) oral,5%
same,Percent Suppression of NK cell activity,[3]; 400 mg/kg (Bid) oral,~80% and 76%
same,Mean survival time (MST) of the mice that died,[4]; FIG. 2,46 days
same,Recipients that had died,"[4]; by 55 days post cell transfer, FIG. 2",30%
same,Recipients that had died,"[4]; by day 30 post cell transfer, FIG. 2, P<0.0000001",none
same,Recipients that had died,"[4]; day 33 post cell transfer, FIG. 3",50%
same,"Prevention of GVHD by route of administration, in words",[4]; oral versus intravenous,the oral route was better than the i.v. route; also recorded: Both the oral and intravenous routes of administration of HE-33 were effective in preventing GVHD
same,% Specific Lysis,"[5]; 100 μM, E:T 25:1",4%
same,inhibition at 100 µM,"[5]; Homo sapiens, T-cell, E:T 25:1, read-out: % Inhibition of lysis",80%
same,% Inhibition of IL-4 production,[6]; 24 hours,0%
same,IL-4 production,[6]; 24 hours,1041 pg/mL
same,% Inhibition of IL-4 production,[6]; 48 hours,87%
same,IL-4 production,[6]; 48 hours,193 pg/mL
same,% Inhibition of IL-4 production,[6]; 72 hours,26%
same,IL-4 production,[6]; 72 hours,860 pg/mL
same,% Inhibition of IL-4 production,[6]; 96 hours,25%
same,IL-4 production,[6]; 96 hours,101 pg/mL
same,Proliferation,[7]; 10 μM,289 CPM
same,Proliferation,[7]; 100 μM,43 CPM
same,inhibition at 10 µM,"[7]; Homo sapiens, T-cell, 10 μM",77%
same,inhibition at 100 µM,"[7]; Homo sapiens, T-cell, 100 μM",97%
same,% Inhibition of IFN-γ production,[8]; 24 hours,0%
same,IFN-γ production,[8]; 24 hours,980 pg/mL
same,% Inhibition of IFN-γ production,[8]; 48 hours,9%
same,IFN-γ production,[8]; 48 hours,6146 pg/mL
same,% Inhibition of IFN-γ production,[8]; 72 hours,0%
same,IFN-γ production,[8]; 72 hours,5390 pg/mL
same,% Inhibition of IFN-γ production,[8]; 96 hours,0%
same,IFN-γ production,[8]; 96 hours,6105 pg/mL
